Data reported in the supplement of paper PMC10307832.

Tests used:
Test in all cases: relative viability (nuclei count vs DMSO), 5 days (fraction); higher = more cells survive
QS11 + Linsitinib = compound: C1CC2=C(C1)C=C(C=C2)OC3=NC(=C4C(=N3)N(C=N4)CC5=CC=C(C=C5)C6=CC=CC=C6)N[C@@H](CC7=CC=CC=C7)CO [QS11] + C[C@]1(O)C[C@@H](c2nc(-c3ccc4ccc(-c5ccccc5)nc4c3)c3c(N)nccn32)C1 [Linsitinib] (partner 1 µM)
How it was run: (§1)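 Medians of duplicate plates are given as relative viability. That measure is the nuclei count in treated wells divided by the count in vehicle wells. Counts were taken on 4× images of lung cancer cell lines in 1536-well plates, 5 days after pin-tool dosing the day after seeding with one drug alone or a fixed anchor-drug dose plus five library-drug doses (not always all listed) in √10 steps.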

QS11 + Olaparib = compound: C1CC2=C(C1)C=C(C=C2)OC3=NC(=C4C(=N3)N(C=N4)CC5=CC=C(C=C5)C6=CC=CC=C6)N[C@@H](CC7=CC=CC=C7)CO [QS11] + O=C(c1cc(Cc2n[nH]c(=O)c3ccccc23)ccc1F)N1CCN(C(=O)C2CC2)CC1 [Olaparib] (partner 8 µM)
How it was run: as §1

AZ628 + Alpelisib = compound: CC1=C(C=C(C=C1)NC(=O)C2=CC(=CC=C2)C(C)(C)C#N)NC3=CC4=C(C=C3)N=CN(C4=O)C [AZ628] + Cc1nc(NC(=O)N2CCC[C@H]2C(N)=O)sc1-c1ccnc(C(C)(C)C(F)(F)F)c1 [Alpelisib] (partner 2 µM)
How it was run: as §1

AZ628 + Dasatinib = compound: CC1=C(C=C(C=C1)NC(=O)C2=CC(=CC=C2)C(C)(C)C#N)NC3=CC4=C(C=C3)N=CN(C4=O)C [AZ628] + Cc1nc(Nc2ncc(C(=O)Nc3c(C)cccc3Cl)s2)cc(N2CCN(CCO)CC2)n1 [Dasatinib] (partner 0.075 µM)
How it was run: as §1

Row | Cell Line | relative viability (QS11 + Linsitinib; first compound 0.08 µM) | relative viability (QS11 + Linsitinib; first compound 0.253 µM) | relative viability (QS11 + Linsitinib; first compound 0.8 µM) | relative viability (QS11 + Linsitinib; first compound 2.53 µM) | relative viability (QS11 + Linsitinib; first compound 8 µM) | relative viability (QS11 + Olaparib; first compound 0.08 µM) | relative viability (QS11 + Olaparib; first compound 0.253 µM) | relative viability (QS11 + Olaparib; first compound 0.8 µM) | relative viability (QS11 + Olaparib; first compound 2.53 µM) | relative viability (QS11 + Olaparib; first compound 8 µM) | relative viability (AZ628 + Alpelisib; first compound 0.08 µM) | relative viability (AZ628 + Alpelisib; first compound 0.253 µM) | relative viability (AZ628 + Alpelisib; first compound 0.8 µM) | relative viability (AZ628 + Alpelisib; first compound 2.53 µM) | relative viability (AZ628 + Alpelisib; first compound 8 µM) | relative viability (AZ628 + Dasatinib; first compound 0.08 µM) | relative viability (AZ628 + Dasatinib; first compound 0.253 µM) | relative viability (AZ628 + Dasatinib; first compound 0.8 µM) | relative viability (AZ628 + Dasatinib; first compound 2.53 µM) | relative viability (AZ628 + Dasatinib; first compound 8 µM)
1 | NCI-H1793 | 0.972 | 0.877 | 0.939 | 1.19 | 1.04 | 0.979 | 0.837 | 0.827 | 0.847 | 1.06 | 0.921 | 0.75 | 0.684 | 0.564 | 0.593 | 0.422 | 0.315 | 0.354 | 0.344 | 0.388
2 | HARA | 0.965 | 1.02 |  | 0.912 | 1.19 | 0.729 |  | 0.473 | 0.919 | 0.803 | 0.68 | 0.763 | 0.907 | 0.726 | 0.391 | 0.322 | 0.227 | 0.175 | 0.247 | 0.198
3 | NCI-H2347 | 1.04 | 0.955 | 0.777 | 0.712 | 1.11 | 0.55 | 0.541 | 0.544 | 0.519 | 0.683 | 0.679 | 0.934 | 0.779 | 0.822 | 0.471 | 0.272 | 0.278 | 0.22 | 0.252 | 0.163
4 | ABC-1 | 0.955 | 0.646 | 0.88 | 0.801 | 0.929 | 0.655 | 0.833 | 0.85 | 0.563 | 1.04 | 1.16 | 1.05 | 1.17 | 1.1 | 0.906 | 0.592 | 0.412 | 0.583 | 0.516 | 0.52
5 | NCI-H2342 |  |  |  |  |  | 0.352 | 0.395 | 0.494 | 0.479 | 0.441 |  |  |  |  |  | 0.319 | 0.307 | 0.327 | 0.306 | 0.298
6 | NCI-H2126 | 0.71 | 0.814 | 0.679 | 0.683 | 0.643 | 0.874 | 0.95 | 0.8 | 0.799 | 0.634 | 0.819 | 0.734 | 0.83 | 0.783 | 0.653 | 0.584 | 0.565 | 0.492 | 0.491 | 0.415
7 | HOP-62 | 0.784 | 1.05 | 0.852 | 0.616 | 0.913 | 0.477 | 0.46 | 0.31 | 0.319 | 0.382 | 1.02 | 1.11 | 0.947 | 1.24 | 0.451 | 0.501 | 0.608 | 0.477 | 0.478 | 0.317
8 | NCI-H2085 | 0.885 | 1.19 | 1.01 | 0.959 | 1.07 | 0.741 | 0.846 | 0.773 | 0.785 | 0.976 | 1.06 | 0.965 | 1.03 | 0.856 | 0.714 | 0.255 | 0.274 | 0.252 | 0.239 | 0.237
9 | NCI-H1944 | 1.18 | 1.38 |  | 1.18 | 1.26 | 0.395 | 0.482 |  | 0.397 | 0.394 | 0.855 | 0.718 | 0.673 | 0.68 | 0.586 | 0.209 | 0.211 | 0.208 | 0.192 | 0.197
10 | EMC-BAC-2 | 0.825 | 0.826 | 0.728 | 0.815 | 0.73 | 0.461 | 0.492 | 0.464 | 0.492 | 0.44 | 0.704 | 0.645 | 0.681 | 0.608 | 0.706 | 0.303 | 0.321 | 0.383 | 0.373 | 0.412
11 | NCI-H2228 | 0.658 | 0.555 | 0.809 | 0.834 | 0.797 | 0.586 | 0.663 | 0.727 | 0.648 | 0.993 | 0.697 | 0.984 | 0.656 | 0.888 | 0.351 | 0.479 | 0.531 | 0.47 | 0.432 | 0.396
12 | A-427 | 1.12 | 1.1 |  | 1.14 | 1.09 | 0.756 | 0.67 |  | 0.656 | 0.559 | 1.02 | 1.06 | 0.624 | 0.635 | 0.222 | 0.594 | 0.472 | 0.301 | 0.314 | 0.153
13 | EPLC-272H | 1.16 | 1.47 | 1.12 | 1.09 | 1.23 | 0.707 | 0.888 | 0.716 | 0.808 | 0.505 | 0.951 | 0.85 | 0.892 | 0.908 | 0.641 | 0.317 | 0.345 | 0.398 | 0.357 | 0.231
14 | A549 | 0.506 | 0.558 | 0.507 | 0.475 | 0.885 | 0.197 | 0.339 | 0.37 | 0.284 | 0.574 | 0.688 | 0.677 | 0.5 | 0.565 | 0.258 |  |  |  |  | 
15 | NCI-H358 | 0.731 | 0.779 | 0.952 | 1.49 | 1.33 | 0.635 | 0.62 | 0.566 | 0.633 | 0.618 | 0.745 | 0.639 | 0.668 | 0.571 | 0.389 | 0.184 | 0.124 | 0.136 | 0.161 | 0.1
16 | NCI-H2009 | 1.25 | 1.26 | 1.13 | 1.03 | 0.95 | 0.596 | 0.816 | 0.679 | 0.613 | 0.49 | 1.01 | 0.895 | 0.692 | 1.03 | 0.34 | 0.202 | 0.258 | 0.182 | 0.173 | 0.184
17 | HCC-827 | 0.977 | 1.04 | 0.877 | 0.929 | 0.821 | 0.587 | 0.712 | 0.656 | 0.775 | 0.606 | 0.903 | 0.9 | 0.889 | 0.984 | 0.555 | 0.364 | 0.295 | 0.296 | 0.25 | 0.18
